Like-named read-outs stand apart in the source and are kept apart here.
Experiment: Phase 1 study Part 1: plasma PK and relative bioavailability of LUM-201 tablets vs capsule
Format: in vivo, human
Details: for decrease of DNCmax as compared to the 90 mg tablet dose, fasted: statistically significant; for Tmax / AUC(0-inf) / AUC(0-t) / Cmax / half-life: human, plasma
From the text: This study in healthy adult subjects was designed to establish the pharmacokinetic (PK) and pharmacodynamic (PD) profiles for the orally administered test product (coated mini-tablets in a capsule) and reference product (mini-tablet) to evaluate relative bioavailability in Part 1 and to evaluate the food effect on the bioavailability of test product (capsule only) in Part 2.
This was a single center, open-label, randomized, Phase 1 study in healthy adult subjects. This study consisted of 2 parts: Part 1 was a 4-sequence, 4-treatment, 4 Treatment Periods, crossover study to determine the relative bioavailability of current tablets to new capsule formulations of LUM-201; Part 2 was a 2-sequence, 2-treatment, 2 Treatment Periods, crossover study to evaluate the food effect on the bioavailability of the new capsule formulation of LUM-201. An individual subject was allowed to participate in only 1 part (Part 1 or Part 2) of the study. Forty subjects were planned and enrolled in this study. • Part 1: A total of 28 subjects were planned and enrolled in Part 1. Part 1 consisted of 4 sequences, each having 4 Treatment Periods enrolling 7 subjects (1:1:1:1 ratio). During Treatment Periods 1 through 4, each subject received 4 single oral doses of LUM-201 drug product in a randomized, crossover order. • Part 2: A total of 12 subjects were planned and enrolled in Part 2. Part 2 consisted of 2 sequences, each having 2 Treatment Periods enrolling 6 subjects (1:1 ratio). Each subject received a single oral dose of LUM-201 at each Treatment Period. During Treatment Periods 1 and 2, each subject received 2 single oral doses of LUM-201 in a randomized, crossover order. • On Day 1 of Treatment Period 1, subjects were administered the assigned treatment (A or B) as randomized, followed by a washout of at least 3 days between Treatment Periods 1 and 2. Subjects stayed in-house (not discharged) between the Treatment Periods. • Treatment A was dosed at 85.3 mg capsule formulation of LUM-201 (intact capsule consumed unopened) consumed while subject was in a fasted state with 240 mL of water. • Treatment B was dosed at 85.3 mg capsule formulation of LUM-201 (intact capsule consumed unopened) consumed 30 minutes after start of a high-fat meal with 240 mL of water. • Subjects were discharged from the study center on the morning of Day 3 of Treatment Period 2 after the scheduled study assessments had been completed.
• Treatment A (reference): five 18 mg oral tablets of LUM-201 were administered under fasted state with 240 mL of water. • Treatment B (test): a single 85.3 mg dose of oral capsule formulation of LUM-201 was administered as a whole capsule under fasted state with 240 mL of water. • Treatment C (test): a single 85.3 mg dose of oral capsule formulation of LUM-201 was administered by dosing capsule contents (dry) under fasted state with 240 mL of water. • Treatment D (test): a single 85.3 mg dose of oral capsule formulation of LUM-201 was mixed (capsule contents) with banana puree (2 teaspoons), followed by 240 mL of water and was ingested within 5 minutes under fasted state (Note: Banana Puree, single serve cup was used [118.3 mL]). […]

[1] = Part 1, Treatment D (test): 85.3 mg capsule contents in banana puree, oral, fasted
[2] = Part 1, Treatment D (test): 85.3 mg capsule contents in banana puree, oral, fasted, ANOVA
[3] = test Treatment B (85.3 mg whole capsule, fasted) to reference Treatment A (90 mg tablets, fasted)
[4] = test Treatment C (85.3 mg capsule contents in dosing cup, fasted) to reference Treatment A (90 mg tablets, fasted)
[5] = test Treatment D (85.3 mg capsule contents in banana puree) to reference Treatment A (90 mg tablets, fasted)

DNAUC0-last, Geometric Mean [1]: 6.276 ng·h/mL/mg
DNCmax, Arithmetic Mean [1]: 1.422 ng/mL/mg
DNCmax, Geometric Mean [1]: 1.087 ng/mL/mg
t1/2, Geometric Mean [1]: 8.09 h
tlag, Median [1]: 0 h
tlast, Median [1]: 48.02 h
λz, Arithmetic Mean [1]: 0.0872 h⁻¹
λz, Geometric Mean [1]: 0.0856 h⁻¹
DNAUC0-inf, GLS Mean [2]: 6.38 ng·h/mL/mg
DNAUC0-last, GLS Mean [2]: 6.26 ng·h/mL/mg
DNCmax, GLS Mean [2]: 1.08 ng/mL/mg
decrease of DNCmax as compared to the 90 mg tablet dose, fasted (Treatment B: 85.3 mg whole capsule, fasted): 14.1%
decrease of DNCmax as compared to the 90 mg tablet dose, fasted (Treatment C: 85.3 mg capsule contents in a dosing cup, fasted): 20.4%
decrease of DNCmax as compared to the 90 mg tablet dose, fasted (Treatment D: 85.3 mg capsule contents in banana puree): 14.4%
Tmax (oral, Part 1, post-dose, Treatments A to D, read-out: median tmax, range over all four treatments): 0.782 to 1.23 h
AUC(0-inf) (po, 85.3 mg, Part 1, Treatment B (test): 85.3 mg whole capsule, oral, fasted, read-out: AUC0-inf, Arithmetic Mean): 566 ng·h/mL
AUC(0-inf) (po, 85.3 mg, Part 1, Treatment B (test): 85.3 mg whole capsule, oral, fasted, read-out: AUC0-inf, Geometric Mean): 512 ng·h/mL
AUC(0-t) (po, 85.3 mg, Part 1, Treatment B (test): 85.3 mg whole capsule, oral, fasted, read-out: AUC0-last, Arithmetic Mean): 557 ng·h/mL
AUC(0-t) (po, 85.3 mg, Part 1, Treatment B (test): 85.3 mg whole capsule, oral, fasted, read-out: AUC0-last, Geometric Mean): 504 ng·h/mL
Cmax (po, 85.3 mg, Part 1, Treatment B (test): 85.3 mg whole capsule, oral, fasted, read-out: Cmax, Arithmetic Mean): 115 ng/mL
Cmax (po, 85.3 mg, Part 1, Treatment B (test): 85.3 mg whole capsule, oral, fasted, read-out: Cmax, Geometric Mean): 93.2 ng/mL
half-life (po, 85.3 mg, Part 1, Treatment B (test): 85.3 mg whole capsule, oral, fasted, read-out: t1/2, Arithmetic Mean (converted)): 8.19 h
half-life (po, 85.3 mg, Part 1, Treatment B (test): 85.3 mg whole capsule, oral, fasted, read-out: t1/2, Geometric Mean (converted)): 8.06 h
Tmax (po, 85.3 mg, Part 1, Treatment B (test): 85.3 mg whole capsule, oral, fasted, read-out: tmax, Median): 1.23 h
AUC(0-inf) (po, 85.3 mg, Part 1, Treatment C (test): 85.3 mg capsule contents (dry), oral, fasted, read-out: AUC0-inf, Arithmetic Mean): 583 ng·h/mL
AUC(0-inf) (po, 85.3 mg, Part 1, Treatment C (test): 85.3 mg capsule contents (dry), oral, fasted, read-out: AUC0-inf, Geometric Mean): 534 ng·h/mL
AUC(0-t) (po, 85.3 mg, Part 1, Treatment C (test): 85.3 mg capsule contents (dry), oral, fasted, read-out: AUC0-last, Arithmetic Mean): 573 ng·h/mL
AUC(0-t) (po, 85.3 mg, Part 1, Treatment C (test): 85.3 mg capsule contents (dry), oral, fasted, read-out: AUC0-last, Geometric Mean): 524 ng·h/mL
Cmax (po, 85.3 mg, Part 1, Treatment C (test): 85.3 mg capsule contents (dry), oral, fasted, read-out: Cmax, Arithmetic Mean): 98.9 ng/mL
Cmax (po, 85.3 mg, Part 1, Treatment C (test): 85.3 mg capsule contents (dry), oral, fasted, read-out: Cmax, Geometric Mean): 86.5 ng/mL
half-life (po, 85.3 mg, Part 1, Treatment C (test): 85.3 mg capsule contents (dry), oral, fasted, read-out: t1/2, Arithmetic Mean (converted)): 8.58 h
half-life (po, 85.3 mg, Part 1, Treatment C (test): 85.3 mg capsule contents (dry), oral, fasted, read-out: t1/2, Geometric Mean (converted)): 8.47 h
Tmax (po, 85.3 mg, Part 1, Treatment C (test): 85.3 mg capsule contents (dry), oral, fasted, read-out: tmax, Median): 1.12 h
AUC(0-inf) (po, 85.3 mg, Part 1, Treatment D (test): 85.3 mg capsule contents in banana puree, oral, fasted, read-out: AUC0-inf, Arithmetic Mean): 629 ng·h/mL
AUC(0-inf) (po, 85.3 mg, Part 1, Treatment D (test): 85.3 mg capsule contents in banana puree, oral, fasted, read-out: AUC0-inf, Geometric Mean): 546 ng·h/mL
AUC(0-t) (po, 85.3 mg, Part 1, Treatment D (test): 85.3 mg capsule contents in banana puree, oral, fasted, read-out: AUC0-last, Arithmetic Mean): 619 ng·h/mL
AUC(0-t) (po, 85.3 mg, Part 1, Treatment D (test): 85.3 mg capsule contents in banana puree, oral, fasted, read-out: AUC0-last, Geometric Mean): 535 ng·h/mL
Cmax (po, 85.3 mg, Part 1, Treatment D (test): 85.3 mg capsule contents in banana puree, oral, fasted, read-out: Cmax, Arithmetic Mean): 121 ng/mL
Cmax (po, 85.3 mg, Part 1, Treatment D (test): 85.3 mg capsule contents in banana puree, oral, fasted, read-out: Cmax, Geometric Mean): 92.7 ng/mL
half-life (po, 85.3 mg, Part 1, Treatment D (test): 85.3 mg capsule contents in banana puree, oral, fasted, read-out: t1/2, Arithmetic Mean (converted)): 8.23 h
half-life (po, 85.3 mg, Part 1, Treatment D (test): 85.3 mg capsule contents in banana puree, oral, fasted, read-out: t1/2, Geometric Mean (converted)): 8.1 h
Tmax (po, 85.3 mg, Part 1, Treatment D (test): 85.3 mg capsule contents in banana puree, oral, fasted, read-out: tmax, Median): 1.03 h
AUC(0-inf) (po, 90 mg, Part 1, Treatment A (reference): five 18 mg tablets (90 mg), oral, fasted, read-out: AUC0-inf, Arithmetic Mean): 630 ng·h/mL
AUC(0-inf) (po, 90 mg, Part 1, Treatment A (reference): five 18 mg tablets (90 mg), oral, fasted, read-out: AUC0-inf, Geometric Mean): 562 ng·h/mL
AUC(0-t) (po, 90 mg, Part 1, Treatment A (reference): five 18 mg tablets (90 mg), oral, fasted, read-out: AUC0-last, Arithmetic Mean): 620 ng·h/mL
AUC(0-t) (po, 90 mg, Part 1, Treatment A (reference): five 18 mg tablets (90 mg), oral, fasted, read-out: AUC0-last, Geometric Mean): 552 ng·h/mL
Cmax (po, 90 mg, Part 1, Treatment A (reference): five 18 mg tablets (90 mg), oral, fasted, read-out: Cmax, Arithmetic Mean): 132 ng/mL
Cmax (po, 90 mg, Part 1, Treatment A (reference): five 18 mg tablets (90 mg), oral, fasted, read-out: Cmax, Geometric Mean): 114 ng/mL
half-life (po, 90 mg, Part 1, Treatment A (reference): five 18 mg tablets (90 mg), oral, fasted, read-out: t1/2, Arithmetic Mean (converted)): 7.95 h
half-life (po, 90 mg, Part 1, Treatment A (reference): five 18 mg tablets (90 mg), oral, fasted, read-out: t1/2, Geometric Mean (converted)): 7.83 h
Tmax (po, 90 mg, Part 1, Treatment A (reference): five 18 mg tablets (90 mg), oral, fasted, read-out: tmax, Median): 0.782 h
DNAUC0-inf, Geo LSM Ratio % [3]: 95.50%
DNAUC0-last, Geo LSM Ratio % [3]: 95.50%
DNCmax, Geo LSM Ratio % [3]: 85.90%
DNAUC0-inf, Geo LSM Ratio % [4]: 99.50%
DNAUC0-last, Geo LSM Ratio % [4]: 99.40%
DNCmax, Geo LSM Ratio % [4]: 79.60%
DNAUC0-inf, Geo LSM Ratio % [5]: 102.20%
DNAUC0-last, Geo LSM Ratio % [5]: 102.00%
DNCmax, Geo LSM Ratio % [5]: 85.60%
SMILES: CC(C)(N)C(=O)N[C@H](COCc1ccccc1)C(=O)N1CCC2(CC1)CN(S(C)(=O)=O)c1ccccc12 [LUM-201, N-[1(R)-[(1,2-dihydro-1-methanesulfonylspiro[3H-indole-3,4′-piperdin]-yl)carbonyl]-2-(phenylmethyloxy)ethyl]-2-amino-2-methylpropanamide methanesulfonate]
